Reference: paper PMC6510840, “A phase 1b study of transforming growth factor-beta receptor I inhibitor galunisertib in combination with sorafenib in Japanese patients with unresectable hepatocellular carcinoma” (Investigational New Drugs, 2018)
Like-named read-outs stand apart in the source and are kept apart here. Marks after values point to notes of the source that are not given here.

How the values were obtained:
[1] = Noncompartmental plasma pharmacokinetics in phase 1b study; format: in vivo, human; settings: for Tmax / half-life / AUC(0-t) / Cmax / AUC(0-inf) / Vd/F: human, plasma; for Cmax: geometric mean (CV%); for Vd/F: read-out: VZ/F
Method: PK analyses were conducted on patients who received at least one dose of galunisertib and had PK samples collected. The PK parameters for galunisertib were calculated by standard noncompartmental methods of analysis using Phoenix™ WinNonlin® 6.4 (Pharsight, A Certara Company; Princeton, NJ, USA). The maximum plasma concentration, time to maximum plasma concentration (tmax), area under the plasma concentration versus time curve from time zero to the last time point with a measurable concentration, and area under the plasma concentration-time curve from time zero to infinity, half-life (t1/2), apparent total body clearance (CL/F), and apparent volume of distribution during the terminal phase (Vz/F) that could be calculated from the data were reported for galunisertib from the noncompartmental PK analyses. Sorafenib PK profiles on day 22 (sorafenib monotherapy) were compared with sorafenib PK profiles on day 14 (administration of galunisertib in combination with sorafenib) within the same patient and in each cohort.

[2] = test system: HCC; set-up: method as in PMID 18650514; settings: sorafenib arm, global SHARP study; cited from earlier work
[3] = test system: Japanese patients with unresectable hepatocellular carcinoma; assay: Safety and tolerability (DLTs, TEAEs, SAEs, QTc) in phase 1b study; settings: for 14 days (then 14 days rest), in combination with sorafenib
Method: All eligible patients in this phase 1b, open-label, dose-escalation, multicenter, nonrandomized study received oral administration of galunisertib (160 mg or 300 mg/day) in combination with oral administration of sorafenib 800 mg/day. A cycle was defined as 28 days. Galunisertib was administered at either 80 mg twice daily or 150 mg twice daily for 14 days, followed by 14 days of galunisertib treatment rest, and sorafenib 400 mg twice daily for 28 days. Patients continued treatment until a discontinuation criterion was met.
The DLT evaluation period was 28 days after the first dose. Tolerability was defined as a dose where 2 or fewer of 6 patients experience DLTs. A minimum of 3 patients were planned to be enrolled in the galunisertib 160 mg/day plus sorafenib group, and a minimum of 6 patients were planned to be enrolled in the galunisertib 300 mg/day plus sorafenib group. […]
The sample size was determined based on the study design to evaluate the DLTs, safety, and tolerability of galunisertib in two sequential study treatment groups. […] Patients without a DLT who discontinued the study in cycle 1 due to disease progression, or discontinued sorafenib in cycle 1 for reasons other than disease progression, were assessed for appropriateness of DLT evaluation per Efficacy and Safety Evaluation Committee recommendations. […]

[4] = test system: advanced HCC; set-up: method as in earlier work; settings: galunisertib monotherapy, cited from earlier work
[5] = po, Galunisertib 160 mg/day plus sorafenib, Cycle 1 Day 14, geometric mean (CV%), n = 3
[6] = po, Galunisertib 300 mg/day plus sorafenib, Cycle 1 Day 14, geometric mean (CV%), n = 3

For CNC(=O)c1cc(Oc2ccc(NC(=O)Nc3ccc(Cl)c(C(F)(F)F)c3)cc2)ccn1 [sorafenib], which “PK profile of sorafenib in combination with galunisertib” value ([1]; day 14 (with galunisertib) versus day 22 (sorafenib monotherapy), data not shown) is on record?
Its value is “comparable to that of sorafenib administered alone”.

What about the “median OS” value [2] of the same compound?
Its value is 10.7 months.

With Cc1cccc(-c2nn3c(c2-c2ccnc4ccc(C(N)=O)cc24)CCC3)n1 [Galunisertib, galunisertib] as the compound, how does the CL/F ([1]; Galunisertib 160 mg/day plus sorafenib, Cycle 1 Day 14, geometric mean (CV%), n = 3) read?
Its CL/F is 10.1 (4)^d L/h.

And the CL/F ([1]; Galunisertib 160 mg/day plus sorafenib, Cycle 1 Day 14, geometric mean (CV%), n = 3, listed as galunisertib)?
Its CL/F is 10.1 L/h.

And the CL/F ([1]; Galunisertib 300 mg/day plus sorafenib, Cycle 1 Day 14, geometric mean (CV%), n = 3)?
The CL/F was 13.5 (9)^d L/h.

And the CL/F ([1]; Galunisertib 300 mg/day plus sorafenib, Cycle 1 Day 14, geometric mean (CV%), n = 3, listed as galunisertib)?
The CL/F was 13.5 L/h.

And the Tmax ([1]; oral, both galunisertib doses (160 and 300 mg/day) plus sorafenib, post-dose, read-out: median tmax)?
Its Tmax is 1 to 2 h.

And the half-life ([1]; oral, both galunisertib doses (160 and 300 mg/day) plus sorafenib, read-out: mean t1/2 (converted))?
Its half-life is ~4 h.

And the AUC(0-t) ([1]; po, 160 mg/day, Galunisertib 160 mg/day plus sorafenib, Cycle 1 Day 1, geometric mean (CV%), N 7, read-out: AUC(0-6))?
The AUC(0-t) was 2800 ng·h/mL.

And the Tmax ([1]; po, 160 mg/day, Galunisertib 160 mg/day plus sorafenib, Cycle 1 Day 1, median (range), N 7, read-out: tmax)?
The Tmax was 1.93 h.

And the Cmax ([1]; po, 160 mg/day, Galunisertib 160 mg/day plus sorafenib, Cycle 1 Day 1, plasma, N 7)?
Its Cmax is 899 ng/mL.

What about the AUC(0-t) ([1]; po, 160 mg/day, Galunisertib 160 mg/day plus sorafenib, Cycle 1 Day 14, geometric mean (CV%), N 7, read-out: AUC(0-6)) of the same compound?
Its AUC(0-t) is 3670 ng·h/mL.

What about the AUC(0-t) ([1]; po, 160 mg/day, Galunisertib 160 mg/day plus sorafenib, Cycle 1 Day 14, geometric mean (CV%), n = 6, read-out: AUC(0–24)) of the same compound?
The AUC(0-t) was 7170 ng·h/mL.

What about the Tmax ([1]; po, 160 mg/day, Galunisertib 160 mg/day plus sorafenib, Cycle 1 Day 14, median (range), N 7, read-out: tmax) of the same compound?
The Tmax was 1.85 h.

And the Cmax ([1]; po, 160 mg/day, Galunisertib 160 mg/day plus sorafenib, Cycle 1 Day 14, plasma, N 7)?
Its Cmax is 1150 ng/mL.

What about the AUC(0-t) ([1]; po, 300 mg/day, Galunisertib 300 mg/day plus sorafenib, Cycle 1 Day 1, geometric mean (CV%), N 7, read-out: AUC(0-6)) of the same compound?
The AUC(0-t) was 5040 ng·h/mL.

And the Tmax ([1]; po, 300 mg/day, Galunisertib 300 mg/day plus sorafenib, Cycle 1 Day 1, median (range), N 7, read-out: tmax)?
The Tmax was 0.93 h.

And the Cmax ([1]; po, 300 mg/day, Galunisertib 300 mg/day plus sorafenib, Cycle 1 Day 1, plasma, N 7)?
The Cmax was 1900 ng/mL.

What about the AUC(0-t) ([1]; po, 300 mg/day, Galunisertib 300 mg/day plus sorafenib, Cycle 1 Day 14, geometric mean (CV%), N 4, read-out: AUC(0-6)) of the same compound?
Its AUC(0-t) is 5570 ng·h/mL.

What about the AUC(0-t) ([1]; po, 300 mg/day, Galunisertib 300 mg/day plus sorafenib, Cycle 1 Day 14, geometric mean (CV%), N 4, read-out: AUC(0–24)) of the same compound?
The AUC(0-t) was 10600 ng·h/mL.

And the Tmax ([1]; po, 300 mg/day, Galunisertib 300 mg/day plus sorafenib, Cycle 1 Day 14, median (range), N 4, read-out: tmax)?
Its Tmax is 2.04 h.

What about the Cmax ([1]; po, 300 mg/day, Galunisertib 300 mg/day plus sorafenib, Cycle 1 Day 14, plasma, N 4) of the same compound?
The Cmax was 2000 ng/mL.

And the AUC(0-inf) [1, 5]?
Its AUC(0-inf) is 7870 ng·h/mL.

What about the Vd/F [1, 5] of the same compound?
The Vd/F was 62 L.

And the half-life ([1]; po, Galunisertib 160 mg/day plus sorafenib, Cycle 1 Day 14, geometric mean (range), n = 3, read-out: t1/2 (converted))?
Its half-life is 4.24 h.

And the AUC(0-inf) [1, 6]?
The AUC(0-inf) was 11100 ng·h/mL.

What about the Vd/F [1, 6] of the same compound?
Its Vd/F is 78.1 L.

What about the half-life ([1]; po, Galunisertib 300 mg/day plus sorafenib, Cycle 1 Day 14, geometric mean (range), n = 3, read-out: t1/2 (converted)) of the same compound?
Its half-life is 4.01 h.

What about the “recommended dose of galunisertib with confirmed tolerability” value [3] of the same compound?
Its value is 150 mg twice daily.

What about the “median OS” value ([4]; AFP <1.5 ULN (part B), 90% CI 10.4–24.1) of the same compound?
Its value is 16.8 months.

And the “median OS” value ([4]; baseline AFP ≥1.5 ULN (part A), 90% CI 5.3–9.3)?
The value was 7.2 months.

And the “median time-to-progression (TTP)” value ([4]; part A, 90% CI 1.4−2.9)?
Its value is 2.7 months.

What about the “median time-to-progression (TTP)” value ([4]; part B, 90% CI 2.3–5.5) of the same compound?
The value was 4.1 months.
